{"source": "patent US20100278730A1", "about": "“Non-Invasive Molecular Imaging of Cellular Histone Deacetylase Substrate Using Magnetic Resonance Spectroscopy (MRS) or Positron Emission Tomography (PET)” (priority 2007, published 2010)", "key": {"[1]": {"tested_on": "HDACs 1-11", "assay": "HDAC fluorimetric assay", "type": "biochemical", "details": "for histone deacetylase activity in the presence of the substrate: FIG. 21, BPS#3 as control", "experimental": "Material: Assay buffer, Assay developer, HDAC substrate\n(§1) Source: BPS Bioscience, Inc.\nAdd reaction mixtures to low binding black plate. These include: HDAC assay buffer, Bovine serum albumin solution, HDAC substrate, and HDAC enzymes.\nIncubate at 37° C. for 30 minutes.\n(§2) Stop the reaction by addition of HDAC Assay developer (2×) and incubate plate at room temperature for 15 minutes.\n(§3) Read sample in a microtiter-plate reading fluorimeter at excitation wavelength in the range of 350-380 nm and detect in emission range of 440-460 nm."}, "[2]": {"tested_on": "sirtuins 1-5", "assay": "Sirtuin fluorimetric assay", "type": "biochemical", "experimental": "Sirtuin Fluorimetric Assay\nMaterial: substrate available from manufacturer\nas §1\nAdd reaction mixtures to low binding black plate. These include: Sirtuin, HDAC assay buffer, Bovine serum albumin solution, NAD+ solution and Sirtuin substrate.\nIncubate at 37° C. for 30 minutes\nas §2, §3"}, "[3]": {"tested_on": "MDA-MB435 human breast carcinoma cells", "assay": "In vitro uptake study of [18F]-FAHA in human breast carcinoma cell line", "type": "cell-based", "experimental": "MDA-MB435 human breast carcinoma cells were grown into flasks with D-MEM/F-12 medium supplemented with 10% FBS and antibiotics at 37° C. in humidified atmosphere with 5% CO2. Cells were kept in the log phase proliferative activity. 5×10^6 of cells in 15 mL of medium were distributed into each tissue culture dish and were incubated at least for 24 hours.\nNext day, culture medium was replaced to fresh medium again and was incubated for 3 hours. Then […] of [^18F]-FAHA in […] of saline was added to each dish followed by incubation for 5, 10, 15, 30, 60, and 120 min. At each time point, cells were scraped and were centrifuged at 3,000 rpm for 1 min. After centrifugation, […] of supernatant medium and cells were weighed and their radioactivity measured using a gamma counter. Then the ratio of radioactivity between 1 gram of cells and 1 gram of medium was calculated.\nFor an inhibition study, cells were incubated in medium with […] of SAHA from 1 hour before adding [^18F]-FAHA."}, "[4]": {"tested_on": "MB435 tumor xenografts", "assay": "PET of [18F]-FAHA in MB435 tumor xenograft-bearing nude rats (second Example 4)", "type": "in vivo, rat", "experimental": "Methods: [^18F]-FAHA was synthesized with high specific activity according to a method developed at M. D. Anderson Cancer Center. Human breast cancer cells, cell line MB435, grown as described in Example 3, were used to grow tumor xenografts in nude rats. Ten million cancer cells were injected subcutaneously in the neck area of six nude rats. When tumors were 1 cm in diameter, animals were anesthetized, injected with [^18F]-FAHA (37 MBq) and PET imaging was performed (dynamic) up to 60 min post-injection. Two days after the initial imaging, another PET imaging with [^18F]-FAHA was performed using a […] (SAHA). The animals were given SAHA (50 mg/kg) intraperitoneally 1 hour prior to injection of the radiotracer."}, "[5]": {"tested_on": "MB435 human breast carcinoma tumor", "assay": "PET of [18F]-FAHA in MB435 carcinoma-bearing nu/nu rats, with Gjedde-Patlak analysis (Example 5)", "type": "in vivo, rat", "experimental": "MB435 human breast carcinoma cells were grown as described in Example 3, above. About 10×10^6 MB435 cells were injected subcutaneously in female nu/nu rat. When tumor size was 15 mm in diameter, PET imaging studies with [^18F]-FAHA were conducted in five rats using microPET R4 (Concorde). The animals were injected intravenously with […] (1mCi) of [^18F]-FAHA and dynamic scanning (0-60 min) was performed. During the imaging session the rats were anesthetized with 2.0 vol % isoflurane/oxygen inhalation and continuously heated with a heating lamp.\nTwo days after the initial study, another [^18F]-FAHA PET imaging with an […] (SAHA) was performed. The animals were given SAHA (100 mg/kg) intraperitoneally 1 hour prior to injection of the [^18F]-FAHA.\nBoth a Gjedde-Patlak plot and a Logan plot were taken. […] The linearity of the plot was checked and a plasma/reference region used as an input. […]"}, "[6]": {"tested_on": "HDAC activity in rat brain", "assay": "PET imaging of HDAC activity in rat brain using [18F]-FAHA (Example 6)", "type": "in vivo", "experimental": "Methods: [^18F]-FAHA was synthesized according to the methods developed in our laboratory in high specific activity. Imaging studies with [^18F]-FAHA were conducted in five rats using a PET scanner under isoflurane inhalation anesthesia. The animals were injected intravenously with 37 MBq of [^18F]-FAHA and dynamic scanning PET (0-60 min) was performed. During the imaging session, the rats were anesthetized with 1-1.5 vol % isoflurane/oxygen inhalation and continuously heated with a heating lamp. Two days after the initial study, another PET imaging was performed with [^18F]-FAHA using an […] (SAHA). Each animal was given SAHA (50 mg/kg), intraperitoneally 1 hour prior to injection of the [^18F]-FAHA.\nIn Table 6, “baseline” refers to brain uptake of FAHA without blocking by SAHA."}, "[7]": {"details": "30 min post-injection, with SAHA 50 mg/kg i.p. 1 hour prior"}, "[8]": {"details": "30 min post-injection, without SAHA"}, "[9]": {"details": "60 min post-injection, with SAHA 50 mg/kg i.p. 1 hour prior"}, "[10]": {"details": "60 min post-injection, without SAHA"}, "[11]": {"details": "during 60 min post-injection, without SAHA"}, "[12]": {"details": "5 min post-injection, without SAHA"}}, "data": [{"smiles": "O=C(CCCCCNC(=O)C(F)(F)F)Nc1ccccc1", "note": "[3FAHA, 6-(trifluoroacetamido)-1-hexanoicanilide]", "values": [{"measurement": "qualitative rank of the specificity of various HDACs for the substrate", "setting": "[1]", "value": "HDAC-9>HDAC-7>HDAC-5>HDAC-8>HDAC-4>HDAC-11"}]}, {"smiles": "O=C(CF)NCCCCCC(=O)Nc1ccccc1", "note": "[FAHA, 6-(fluoroacetamido)-1-hexanoicanilide]", "values": [{"measurement": "qualitative rank of the specificity of various HDACs for the substrate", "setting": "[1]", "value": "HDAC-9>HDAC-5>HDAC-8>HDAC-4>HDAC-6>HDAC-1"}]}, {"smiles": "CC(C)CC(=O)NCCCCCC(=O)Nc1ccccc1", "note": "[Iso-PAHA, 6-(isopropylacetamido)-1-hexanoicanilide]", "values": [{"measurement": "histone deacetylase activity in the presence of the substrate", "setting": "[1]", "value": "inhibited the activity of all HDACs"}, {"measurement": "qualitative rank of the specificity of various sirtuins (and HDAC-3) for the substrate", "setting": "[2]", "value": "Sirt-2>Sirt-5>Sirt-4>Sirt-3>Sirt-1"}]}, {"smiles": "CCCC(=O)NCCCCCC(=O)Nc1ccccc1", "note": "[PAHA, 6-(ethylacetamido)-1-hexanoicanilide]", "values": [{"measurement": "histone deacetylase activity in the presence of the substrate", "setting": "[1]", "value": "inhibited the activity of all HDACs"}, {"measurement": "qualitative rank of the specificity of various sirtuins (and HDAC-3) for the substrate", "setting": "[2]", "value": "Sirt-2>Sirt-5>Sirt-4>Sirt-3>Sirt-1 >>HDAC-3"}]}, {"smiles": "O=C(Cc1ccccc1)NCCCCCC(=O)Nc1ccccc1", "note": "[PhAHA, 6-(phenylacetamido)-1-hexanoicanilide]", "values": [{"measurement": "histone deacetylase activity in the presence of the substrate", "setting": "[1]", "value": "inhibited the activity of all HDACs"}, {"measurement": "qualitative rank of the specificity of various sirtuins (and HDAC-3) for the substrate", "setting": "[2]", "value": "Sirt-2 >>Sirt-3>Sirt-4>Sirt-5>Sirt-1"}]}, {"smiles": "O=C(C[18F])NCCCCCC(=O)Nc1ccccc1", "note": "[[^18F]-FAHA, 6-([^18F]-fluoroacetamide)-1-hexanoicanilide]", "values": [{"measurement": "ratio of radioactivity between 1 gram of cells and 1 gram of medium", "setting": "[3]; Baseline, 5 min", "value": "1.95 +/− 0.13"}, {"measurement": "ratio of radioactivity between 1 gram of cells and 1 gram of medium", "setting": "[3]; Baseline, 10 min", "value": "2.09 +/− 0.15"}, {"measurement": "ratio of radioactivity between 1 gram of cells and 1 gram of medium", "setting": "[3]; Baseline, 15 min", "value": "2.11 +/− 0.12"}, {"measurement": "ratio of radioactivity between 1 gram of cells and 1 gram of medium", "setting": "[3]; Baseline, 30 min", "value": "2.02 +/− 0.11"}, {"measurement": "ratio of radioactivity between 1 gram of cells and 1 gram of medium", "setting": "[3]; Baseline, 60 min", "value": "1.84 +/− 0.14"}, {"measurement": "ratio of radioactivity between 1 gram of cells and 1 gram of medium", "setting": "[3]; Baseline, 120 min", "value": "1.38 +/− 0.12"}, {"measurement": "ratio of radioactivity between 1 gram of cells and 1 gram of medium", "setting": "[3]; Inhibition: 10 mM of SAHA from 1 hour before [18F]-FAHA, 5 min", "value": "1.16 +/− 0.03"}, {"measurement": "ratio of radioactivity between 1 gram of cells and 1 gram of medium", "setting": "[3]; Inhibition: 10 mM of SAHA from 1 hour before [18F]-FAHA, 10 min", "value": "1.16 +/− 0.01"}, {"measurement": "ratio of radioactivity between 1 gram of cells and 1 gram of medium", "setting": "[3]; Inhibition: 10 mM of SAHA from 1 hour before [18F]-FAHA, 15 min", "value": "1.16 +/− 0.03"}, {"measurement": "ratio of radioactivity between 1 gram of cells and 1 gram of medium", "setting": "[3]; Inhibition: 10 mM of SAHA from 1 hour before [18F]-FAHA, 30 min", "value": "1.16 +/− 0.04"}, {"measurement": "ratio of radioactivity between 1 gram of cells and 1 gram of medium", "setting": "[3]; Inhibition: 10 mM of SAHA from 1 hour before [18F]-FAHA, 60 min", "value": "1.15 +/− 0.01"}, {"measurement": "ratio of radioactivity between 1 gram of cells and 1 gram of medium", "setting": "[3]; Inhibition: 10 mM of SAHA from 1 hour before [18F]-FAHA, 120 min", "value": "1.13 +/− 0.02"}, {"measurement": "Tumor uptake", "setting": "[4]; [7]", "value": "0.70 ± 0.04", "unit": "% ID/g"}, {"measurement": "tumor-to-muscle (T/M) ratio", "setting": "[4]; [7]", "value": "1.52 ± 0.13"}, {"measurement": "Tumor uptake", "setting": "[4]; [8]", "value": "0.78 ± 0.13", "unit": "% ID/g"}, {"measurement": "tumor-to-muscle (T/M) ratio", "setting": "[4]; [8]", "value": "1.80 ± 0.17"}, {"measurement": "Tumor uptake", "setting": "[4]; [9]", "value": "0.71 ± 0.02", "unit": "% ID/g"}, {"measurement": "tumor-to-muscle (T/M) ratio", "setting": "[4]; [9]", "value": "1.64 ± 0.10"}, {"measurement": "Tumor uptake", "setting": "[4]; [10]", "value": "0.79 ± 0.13", "unit": "% ID/g"}, {"measurement": "tumor-to-muscle (T/M) ratio", "setting": "[4]; [10]", "value": "1.95 ± 0.19"}, {"measurement": "tumor uptake achieved", "setting": "[4]; [11]", "value": "approximately 0.8 % injected dose (ID)/g"}, {"measurement": "tumor-to muscle ratio reached", "setting": "[4]; [11]", "value": 1.95}, {"measurement": "Tumor-to-muscle uptake ratio", "setting": "[5]; Baseline, 5 min", "value": "2.01 +/− 0.57"}, {"measurement": "Tumor-to-muscle uptake ratio", "setting": "[5]; Baseline, 10 min", "value": "2.05 +/− 0.76"}, {"measurement": "Tumor-to-muscle uptake ratio", "setting": "[5]; Baseline, 15 min", "value": "2.08 +/− 0.83"}, {"measurement": "Tumor-to-muscle uptake ratio", "setting": "[5]; Baseline, 30 min", "value": "2.20 +/− 0.95"}, {"measurement": "Tumor-to-muscle uptake ratio", "setting": "[5]; Baseline, 60 min", "value": "2.38 +/− 1.11"}, {"measurement": "Tumor-to-muscle uptake ratio", "setting": "[5]; Inhibition: SAHA 100 mg/kg i.p. 1 hour prior, 5 min", "value": "1.43 +/− 0.15"}, {"measurement": "Tumor-to-muscle uptake ratio", "setting": "[5]; Inhibition: SAHA 100 mg/kg i.p. 1 hour prior, 10 min", "value": "1.50 +/− 0.15"}, {"measurement": "Tumor-to-muscle uptake ratio", "setting": "[5]; Inhibition: SAHA 100 mg/kg i.p. 1 hour prior, 15 min", "value": "1.46 +/− 0.16"}, {"measurement": "Tumor-to-muscle uptake ratio", "setting": "[5]; Inhibition: SAHA 100 mg/kg i.p. 1 hour prior, 30 min", "value": "1.47 +/− 0.12"}, {"measurement": "Tumor-to-muscle uptake ratio", "setting": "[5]; Inhibition: SAHA 100 mg/kg i.p. 1 hour prior, 60 min", "value": "1.47 +/− 0.11"}, {"measurement": "Brain uptake", "setting": "[6]; 5 min post-injection, with SAHA 50 mg/kg i.p. 1 hour prior", "value": "0.33 ± 0.05", "unit": "% ID/g"}, {"measurement": "Brain uptake", "setting": "[6]; [12]", "value": "0.44 ± 0.03", "unit": "% ID/g"}, {"measurement": "brain-to-muscle (B/M) ratio", "setting": "[6]; [12]", "value": "2.56 ± 0.33"}, {"measurement": "Brain uptake", "setting": "[6]; [9]", "value": "0.23 ± 0.04", "unit": "% ID/g"}, {"measurement": "brain-to-muscle (B/M) ratio", "setting": "[6]; [9]", "value": "1.03 ± 0.08"}, {"measurement": "Brain uptake", "setting": "[6]; [10]", "value": "0.40 ± 0.03", "unit": "% ID/g"}, {"measurement": "brain-to-muscle (B/M) ratio", "setting": "[6]; [10]", "value": "2.10 ± 0.63"}, {"measurement": "brain-to muscle ratio reached", "setting": "[6]; at 5 min post-injection, without SAHA", "value": 1.95}, {"measurement": "brain uptake reached", "setting": "[6]; without SAHA", "value": 0.44, "unit": "% injected dose/g"}]}]}
